In the test the target is T1, CYP51 (CaCYP51), lanosterol 14α-demethylase (Candida albicans, UniProt P10613).
T1 construct: gene ERG11; recombinant CaCYP51
The test is described as follows: CYP51 reconstitution assay with CPR and NADPH, GC-MS of demethylated sterols. The test is classed as biochemical.

Where two headings read alike, the source gives them in different places.

For orientation: IC50 means the concentration at which inhibition is half-maximal.

T1 sequence (P10613 whole entry): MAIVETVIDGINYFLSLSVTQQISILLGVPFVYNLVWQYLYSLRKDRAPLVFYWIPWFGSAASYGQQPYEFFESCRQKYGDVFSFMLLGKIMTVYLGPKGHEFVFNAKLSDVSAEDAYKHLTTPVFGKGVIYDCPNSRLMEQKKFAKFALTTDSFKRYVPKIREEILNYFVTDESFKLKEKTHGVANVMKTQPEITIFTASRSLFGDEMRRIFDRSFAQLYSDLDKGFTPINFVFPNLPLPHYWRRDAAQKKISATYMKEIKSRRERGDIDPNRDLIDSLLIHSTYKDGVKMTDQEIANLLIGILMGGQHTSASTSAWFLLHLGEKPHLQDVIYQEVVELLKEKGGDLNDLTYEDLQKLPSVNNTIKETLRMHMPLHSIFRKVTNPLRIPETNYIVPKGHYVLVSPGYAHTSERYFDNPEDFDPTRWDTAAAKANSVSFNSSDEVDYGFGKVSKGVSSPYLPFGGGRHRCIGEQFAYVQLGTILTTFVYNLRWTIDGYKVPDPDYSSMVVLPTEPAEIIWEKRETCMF

For the compound `OC(CN1CCC(Nc2ncc(F)cn2)CC1)(Cn1cncn1)c1ccc(F)cc1F` (racemic) [compound 7, 2-(2,4-Difluorophenyl)-1-(4-((5-fluoropyrimidin-2-Yl)-amino)-piperidin-1-Yl)-3-(1h-1,2,4-triazol-1-Yl)-propan-2-Ol], the IC50 is about 400 nM. Take `OC(Cn1cncn1)(Cn1cncn1)c1ccc(F)cc1F` [fluconazole]: the IC50 (read-out: IC50) was about 600 nM.

The values above are taken from publication PMC12257509, “New Generation Modified Azole Antifungals against Multidrug-Resistant” (Journal of Medicinal Chemistry, 2025).
